Assay results reported in PubChem BioAssay AID256 (DTP/NCI, 2004).
Several values for one entry are separate records, joined by “and”; a condition that tells them apart may be missing. Identical values can stand only once. Inconclusive results and toxic doses are left out.

Test system: CD2F1 mice, L1210 leukemia ip, survival T/C
Test: NCI In Vivo Anticancer Drug Screen. Data for tumor model L1210 Leukemia (intraperitoneal) in CD2F1 (CDF1) mice
Conditions: higher = longer survival
Outline: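 Antitumor effect is scored in animals hosting a serially transplanted tumor. Values compare compound-dosed animals against vehicle-only controls as a simple quotient.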

Cc1[nH]c2ccccc2c1C(c1cc(Cl)cc(Cl)c1O)c1c(C)[nH]c2ccccc12
T/C (endpoint: mean survival time, dose: 25.0 mg/kg/injection, schedule: Q01DX009 (ip), vehicle: saline with Tween-80): 88 % of control | T/C (endpoint: mean survival time, dose: 50.0 mg/kg/injection, schedule: Q01DX009 (ip), vehicle: saline with Tween-80): 86 % of control | T/C (endpoint: mean survival time, dose: 100.0 mg/kg/injection, schedule: Q01DX009 (ip), vehicle: saline with Tween-80): 86 % of control | T/C (endpoint: mean survival time, dose: 200.0 mg/kg/injection, schedule: Q01DX009 (ip), vehicle: saline with Tween-80): 86 % of control

CC(C)[C@]12O[C@H]1[C@@H]1O[C@]13[C@]1(O[C@H]1C[C@H]1C4=C(C(=O)OC4)[C@@H](O)C[C@@]13C)[C@@H]2O
T/C (endpoint: mean survival time, dose: 0.8 micrograms/kg/injection, schedule: Q01DX009 (ip), vehicle: saline + alcohol): 94 % of control | T/C (endpoint: mean survival time, dose: 1.6 micrograms/kg/injection, schedule: Q01DX009 (ip), vehicle: saline + alcohol): 92 % of control | T/C (endpoint: mean survival time, dose: 3.1 micrograms/kg/injection, schedule: Q01DX009 (ip), vehicle: saline + alcohol): 96 % of control | T/C (endpoint: mean survival time, dose: 6.3 micrograms/kg/injection, schedule: Q01DX009 (ip), vehicle: saline + alcohol): 92 % of control | T/C (endpoint: mean survival time, dose: 12.5 micrograms/kg/injection, schedule: Q01DX009 (ip), vehicle: saline + alcohol): 89 % of control | T/C (endpoint: mean survival time, dose: 25.0 micrograms/kg/injection, schedule: Q01DX009 (ip), vehicle: saline + alcohol): 93 % of control | T/C (endpoint: mean survival time, dose: 32.0 micrograms/kg/injection, schedule: Q01DX009 (ip), vehicle: saline + alcohol): 106 % of control | T/C (endpoint: mean survival time, dose: 50.0 micrograms/kg/injection, schedule: Q01DX009 (ip), vehicle: saline + alcohol): 107 % of control | T/C (endpoint: mean survival time, dose: 63.0 micrograms/kg/injection, schedule: Q01DX009 (ip), vehicle: saline + alcohol): 121 % of control | T/C (endpoint: mean survival time, dose: 100.0 micrograms/kg/injection, schedule: Q01DX009 (ip), vehicle: saline + alcohol): 115 % of control | T/C (endpoint: mean survival time, dose: 200.0 micrograms/kg/injection, schedule: Q01DX009 (ip), vehicle: saline + alcohol): 156 % of control | T/C (endpoint: mean survival time, dose: 250.0 micrograms/kg/injection, schedule: Q01DX009 (ip), vehicle: saline + alcohol): 188 % of control | T/C (endpoint: mean survival time, dose: 400.0 micrograms/kg/injection, schedule: Q01DX009 (ip), vehicle: saline + alcohol): 207 % of control | T/C (endpoint: mean survival time, dose: 500.0 micrograms/kg/injection, schedule: Q01DX009 (ip), vehicle: saline + alcohol): 93 % of control | T/C (endpoint: median survival time, dose: 8.0 micrograms/kg/injection, schedule: Q03HX024 (ip), vehicle: saline + alcohol): 111 % of control | T/C (endpoint: median survival time, dose: 8.0 micrograms/kg/injection, schedule: Q03HX024 (ip), vehicle: saline): 110 % of control | T/C (endpoint: median survival time, dose: 16.0 micrograms/kg/injection, schedule: Q03HX016 (ip), vehicle: saline + alcohol): 117 % of control | T/C (endpoint: median survival time, dose: 30.0 micrograms/kg/injection, schedule: Q01DX009 (ip), vehicle: saline): 109 % of control | T/C (endpoint: median survival time, dose: 30.0 micrograms/kg/injection, schedule: Q01DX009 (sc), vehicle: saline): 103 % of control | T/C (endpoint: median survival time, dose: 31.2 micrograms/kg/injection, schedule: Q01DX009 (ip), vehicle: saline + alcohol): 101 % of control | T/C (endpoint: median survival time, dose: 31.2 micrograms/kg/injection, schedule: Q01DX009 (sc), vehicle: saline + alcohol): 98 % of control | T/C (endpoint: median survival time, dose: 31.2 micrograms/kg/injection, schedule: Q03HX024 (ip), vehicle: saline + alcohol): 151 % of control | T/C (endpoint: median survival time, dose: 60.0 micrograms/kg/injection, schedule: Q01DX009 (sc), vehicle: saline): 102 % of control | T/C (endpoint: median survival time, dose: 60.0 micrograms/kg/injection, schedule: Q03HX024 (ip), vehicle: saline): 191 % of control | T/C (endpoint: median survival time, dose: 62.0 micrograms/kg/injection, schedule: Q03HX008 (ip), vehicle: saline + alcohol): 123 % of control | T/C (endpoint: median survival time, dose: 62.5 micrograms/kg/injection, schedule: Q01DX009 (ip), vehicle: saline + alcohol): 122 % of control | T/C (endpoint: median survival time, dose: 62.5 micrograms/kg/injection, schedule: Q01DX009 (sc), vehicle: saline + alcohol): 104 % of control | T/C (endpoint: median survival time, dose: 62.5 micrograms/kg/injection, schedule: Q03HX016 (ip), vehicle: saline + alcohol): 118 % of control | T/C (endpoint: median survival time, dose: 62.5 micrograms/kg/injection, schedule: Q03HX024 (ip), vehicle: saline + alcohol): 166 % of control | T/C (endpoint: median survival time, dose: 62.5 micrograms/kg/injection, schedule: Q04DX003 (ip), vehicle: saline + alcohol): 97 % of control | T/C (endpoint: median survival time, dose: 125.0 micrograms/kg/injection, schedule: Q01DX009 (sc), vehicle: saline + alcohol): 104 % of control | T/C (endpoint: median survival time, dose: 125.0 micrograms/kg/injection, schedule: Q03HX008 (ip), vehicle: saline + alcohol): 118 % of control | T/C (endpoint: median survival time, dose: 125.0 micrograms/kg/injection, schedule: Q03HX016 (ip), vehicle: saline + alcohol): 111 % of control | T/C (endpoint: median survival time, dose: 125.0 micrograms/kg/injection, schedule: Q03HX024 (ip), vehicle: saline + alcohol): 120 % of control | T/C (endpoint: median survival time, dose: 125.0 micrograms/kg/injection, schedule: Q04DX003 (ip), vehicle: saline + alcohol): 101 % of control | T/C (endpoint: median survival time, dose: 125.0 micrograms/kg/injection, schedule: Q08DX002 (ip), vehicle: saline + alcohol): 98 % of control | T/C (endpoint: median survival time, dose: 130.0 micrograms/kg/injection, schedule: Q01DX009 (ip), vehicle: saline): 151 % of control | T/C (endpoint: median survival time, dose: 130.0 micrograms/kg/injection, schedule: Q01DX009 (sc), vehicle: saline): 109 % of control | T/C (endpoint: median survival time, dose: 250.0 micrograms/kg/injection, schedule: Q01DX001 (ip), vehicle: saline + alcohol): 113 % of control | T/C (endpoint: median survival time, dose: 250.0 micrograms/kg/injection, schedule: Q01DX001 (sc), vehicle: saline + alcohol): 104 % of control | T/C (endpoint: median survival time, dose: 250.0 micrograms/kg/injection, schedule: Q01DX009 (ip), vehicle: saline + alcohol): 184 % of control | T/C (endpoint: median survival time, dose: 250.0 micrograms/kg/injection, schedule: Q01DX009 (ip), vehicle: saline): 203 % of control | T/C (endpoint: median survival time, dose: 250.0 micrograms/kg/injection, schedule: Q01DX009 (sc), vehicle: saline): 152 % of control | T/C (endpoint: median survival time, dose: 250.0 micrograms/kg/injection, schedule: Q04DX003 (ip), vehicle: saline + alcohol): 113 % of control | T/C (endpoint: median survival time, dose: 250.0 micrograms/kg/injection, schedule: Q08DX002 (ip), vehicle: saline + alcohol): 109 % of control | T/C (endpoint: median survival time, dose: 500.0 micrograms/kg/injection, schedule: Q01DX001 (ip), vehicle: saline + alcohol): 109 % of control | T/C (endpoint: median survival time, dose: 500.0 micrograms/kg/injection, schedule: Q01DX001 (sc), vehicle: saline + alcohol): 107 % of control | T/C (endpoint: median survival time, dose: 500.0 micrograms/kg/injection, schedule: Q01DX009 (ip), vehicle: saline + alcohol): 239 % of control | T/C (endpoint: median survival time, dose: 500.0 micrograms/kg/injection, schedule: Q01DX009 (ip), vehicle: saline): 255 % of control | T/C (endpoint: median survival time, dose: 500.0 micrograms/kg/injection, schedule: Q01DX009 (sc), vehicle: saline + alcohol): 193 % of control | T/C (endpoint: median survival time, dose: 500.0 micrograms/kg/injection, schedule: Q01DX009 (sc), vehicle: saline): 87 % of control | T/C (endpoint: median survival time, dose: 500.0 micrograms/kg/injection, schedule: Q04DX003 (ip), vehicle: saline + alcohol): 122 % of control | T/C (endpoint: median survival time, dose: 500.0 micrograms/kg/injection, schedule: Q08DX002 (ip), vehicle: saline + alcohol): 108 % of control | T/C (endpoint: median survival time, dose: 1000.0 micrograms/kg/injection, schedule: Q01DX001 (ip), vehicle: saline + alcohol): 109 % of control | T/C (endpoint: median survival time, dose: 1000.0 micrograms/kg/injection, schedule: Q04DX003 (ip), vehicle: saline + alcohol): 115 % of control | T/C (endpoint: median survival time, dose: 1000.0 micrograms/kg/injection, schedule: Q08DX002 (ip), vehicle: saline + alcohol): 97 % of control

O=C(O)C(O)C(=O)O.[NH2-].[NH2-].[Pt+2]
T/C (endpoint: mean survival time, dose: 25.0 mg/kg/injection, schedule: Q04DX003 (ip), vehicle: saline): 108 % of control | T/C (endpoint: mean survival time, dose: 50.0 mg/kg/injection, schedule: Q04DX003 (ip), vehicle: saline): 114 % of control | T/C (endpoint: mean survival time, dose: 100.0 mg/kg/injection, schedule: Q04DX003 (ip), vehicle: saline): 120 % of control

O=C(O)c1cc(-c2ccccc2)nc2c1ccc1ccccc12
T/C (endpoint: mean survival time, dose: 100.0 mg/kg/injection, schedule: Q01DX001 (ip), vehicle: saline): 103 % of control | T/C (endpoint: mean survival time, dose: 200.0 mg/kg/injection, schedule: Q01DX001 (ip), vehicle: saline): 102 % of control | T/C (endpoint: mean survival time, dose: 400.0 mg/kg/injection, schedule: Q01DX001 (ip), vehicle: saline): 97 % of control

CCOC(=O)Nc1cc2c(c(N)n1)N=C(c1ccccc1)CO2
T/C (endpoint: median survival time, dose: 25.0 mg/kg/injection, schedule: Q01DX009 (ip), vehicle: saline with Tween-80): 97 % of control | T/C (endpoint: median survival time, dose: 50.0 mg/kg/injection, schedule: Q01DX009 (ip), vehicle: saline with Tween-80): 117 % of control and 107 % of control and 108 % of control | T/C (endpoint: median survival time, dose: 100.0 mg/kg/injection, schedule: Q01DX009 (ip), vehicle: saline with Tween-80): 122 % of control and 112 % of control (2×) | T/C (endpoint: median survival time, dose: 200.0 mg/kg/injection, schedule: Q01DX009 (ip), vehicle: saline with Tween-80): 115 % of control and 116 % of control and 117 % of control

Nc1ccc(OCC(=O)O)cc1
T/C (endpoint: mean survival time, dose: 100.0 mg/kg/injection, schedule: Q01DX001 (ip), vehicle: saline with Tween-80): 101 % of control | T/C (endpoint: mean survival time, dose: 200.0 mg/kg/injection, schedule: Q01DX001 (ip), vehicle: saline with Tween-80): 98 % of control | T/C (endpoint: mean survival time, dose: 400.0 mg/kg/injection, schedule: Q01DX001 (ip), vehicle: saline with Tween-80): 110 % of control

Cc1ccc(NC(=O)N(CCCl)N=O)c(C)c1
T/C (endpoint: mean survival time, dose: 4.4 mg/kg/injection, schedule: Q01DX009 (ip), vehicle: other): 167 % of control | T/C (endpoint: mean survival time, dose: 6.6 mg/kg/injection, schedule: Q01DX009 (ip), vehicle: other): 161 % of control | T/C (endpoint: mean survival time, dose: 33.0 mg/kg/injection, schedule: Q01DX001 (ip), vehicle: other): 183 % of control | T/C (endpoint: mean survival time, dose: 50.0 mg/kg/injection, schedule: Q01DX001 (ip), vehicle: other): 200 % of control | T/C (endpoint: mean survival time, dose: 75.0 mg/kg/injection, schedule: Q01DX001 (ip), vehicle: other): 178 % of control
